In brackets after ≈: the same amount, converted by molar mass.
Columns and labels:
Type in all cases: functional
Pseudomonas aeruginosa [1] = assay: Antibacterial activity against Pseudomonas aeruginosa assessed as bacterial growth inhibition incubated for 24 hrs by broth microdilution method
Klebsiella pneumoniae = assay: Antibacterial activity against Klebsiella pneumoniae assessed as bacterial growth inhibition incubated for 24 hrs by broth microdilution method
Staphylococcus aureus [2] = assay: Antibacterial activity against Staphylococcus aureus assessed as bacterial growth inhibition incubated for 24 hrs by broth microdilution method
Staphylococcus aureus [3] = assay: Antibacterial activity against methicillin-resistant Staphylococcus aureus assessed as bacterial growth inhibition incubated for 24 hrs by broth microdilution method
Pseudomonas aeruginosa [4] = assay: Antibacterial activity against Pseudomonas aeruginosa ATCC 27853 assessed as bacterial growth inhibition incubated for 24 hrs by broth microdilution method
Staphylococcus aureus [5] = assay: Antibacterial activity against Staphylococcus aureus ATCC 25923 assessed as bacterial growth inhibition incubated for 24 hrs by broth microdilution method
Acinetobacter baumannii [6] = assay: Antibacterial activity against Acinetobacter baumannii assessed as bacterial growth inhibition incubated for 24 hrs by broth microdilution method
Staphylococcus aureus [7] = assay: Antibacterial activity against Staphylococcus aureus ATCC 29213 assessed as bacterial growth inhibition incubated for 24 hrs by broth microdilution method
Escherichia coli [8] = assay: Antibacterial activity against Escherichia coli ATCC 25922 assessed as bacterial growth inhibition incubated for 24 hrs by broth microdilution method
Escherichia coli [9] = assay: Antibacterial activity against Escherichia coli assessed as bacterial growth inhibition incubated for 24 hrs by broth microdilution method
Enterococcus faecalis = assay: Antibacterial activity against Enterococcus faecalis assessed as bacterial growth inhibition incubated for 24 hrs by broth microdilution method
Acinetobacter baumannii [10] = assay: Induction of drug resistance against Acinetobacter baumannii assessed as fold increase in MIC after 20 passages measured for 20 days by sequential passaging method; conditions: time 20.0 day

Structure (SMILES) | MIC (Pseudomonas aeruginosa [1]) | MIC (Klebsiella pneumoniae) | MIC (Staphylococcus aureus [2]) | MIC (Staphylococcus aureus [3]) | MIC (Pseudomonas aeruginosa [4]) | MIC (Staphylococcus aureus [5]) | MIC (Acinetobacter baumannii [6]) | MIC (Staphylococcus aureus [7]) | MIC (Escherichia coli [8]) | MIC (Escherichia coli [9]) | MIC (Enterococcus faecalis) | fold change (FC) (Acinetobacter baumannii [10])
CCN(CC)c1nccc(-n2cncn2)n1 | 1170 µM (≈ 256 µg/mL) | 1170 µM (≈ 256 µg/mL) | 1170 µM (≈ 256 µg/mL) | 1170 µM (≈ 256 µg/mL) | 587 µM (≈ 128 µg/mL) | 587 µM (≈ 128 µg/mL) | 1170 µM (≈ 256 µg/mL) | 587 µM (≈ 128 µg/mL) | 587 µM (≈ 128 µg/mL) | 587 µM (≈ 128 µg/mL) | 587 µM (≈ 128 µg/mL) | –
Clc1ccc2c3ccccc3n(-c3nccc(-n4cncn4)n3)c2c1 | 3 µM (≈ 1.04 µg/mL) | 740 µM (≈ 257 µg/mL) | 740 µM (≈ 257 µg/mL) | 740 µM (≈ 257 µg/mL) | 740 µM (≈ 257 µg/mL) | 740 µM (≈ 257 µg/mL) | 740 µM (≈ 257 µg/mL) | 740 µM (≈ 257 µg/mL) | 740 µM (≈ 257 µg/mL) | 740 µM (≈ 257 µg/mL) | 185 µM (≈ 64.2 µg/mL) | –
CC(=O)Nc1ccc(S(=O)(=O)N2CCN(c3nccc(-n4cncn4)n3)CC2)cc1 | 598 µM (≈ 256 µg/mL) | 598 µM (≈ 256 µg/mL) | 299 µM (≈ 128 µg/mL) | 598 µM (≈ 256 µg/mL) | 598 µM (≈ 256 µg/mL) | 299 µM (≈ 128 µg/mL) | 598 µM (≈ 256 µg/mL) | 598 µM (≈ 256 µg/mL) | 598 µM (≈ 256 µg/mL) | 598 µM (≈ 256 µg/mL) | 598 µM (≈ 256 µg/mL) | –
CN(CCO)c1nccc(-n2cncn2)n1 | 291 µM (≈ 64.1 µg/mL) | 1160 µM (≈ 256 µg/mL) | 1160 µM (≈ 256 µg/mL) | 1160 µM (≈ 256 µg/mL) | 1160 µM (≈ 256 µg/mL) | 1160 µM (≈ 256 µg/mL) | 1360 µM (≈ 300 µg/mL) | 1160 µM (≈ 256 µg/mL) | 582 µM (≈ 128 µg/mL) | 1160 µM (≈ 256 µg/mL) | 582 µM (≈ 128 µg/mL) | –
CCc1nccn1-c1nccc(N(CCO)CCO)n1 | 924 µM (≈ 256 µg/mL) | 1850 µM (≈ 512 µg/mL) | 924 µM (≈ 256 µg/mL) | 924 µM (≈ 256 µg/mL) | 924 µM (≈ 256 µg/mL) | 924 µM (≈ 256 µg/mL) | 924 µM (≈ 256 µg/mL) | 924 µM (≈ 256 µg/mL) | 924 µM (≈ 256 µg/mL) | 924 µM (≈ 256 µg/mL) | 924 µM (≈ 256 µg/mL) | –
Cc1cn(-c2nccc(N(CCO)CCO)n2)c(C)n1 | 462 µM (≈ 128 µg/mL) | 924 µM (≈ 256 µg/mL) | 924 µM (≈ 256 µg/mL) | 924 µM (≈ 256 µg/mL) | 924 µM (≈ 256 µg/mL) | 924 µM (≈ 256 µg/mL) | 924 µM (≈ 256 µg/mL) | 924 µM (≈ 256 µg/mL) | 924 µM (≈ 256 µg/mL) | 924 µM (≈ 256 µg/mL) | 58 µM (≈ 16.1 µg/mL) | –
Cc1cc2ncn(-c3ccnc(N(CCO)CCO)n3)c2cc1C | 98 µM (≈ 32.1 µg/mL) | 391 µM (≈ 128 µg/mL) | 98 µM (≈ 32.1 µg/mL) | 391 µM (≈ 128 µg/mL) | 98 µM (≈ 32.1 µg/mL) | 391 µM (≈ 128 µg/mL) | 391 µM (≈ 128 µg/mL) | 782 µM (≈ 256 µg/mL) | 782 µM (≈ 256 µg/mL) | 196 µM (≈ 64.2 µg/mL) | 196 µM (≈ 64.2 µg/mL) | –
Brc1ccc2c3ccccc3n(-c3nccc(-n4cncn4)n3)c2c1 | 1 µM (≈ 0.391 µg/mL) | 656 µM (≈ 257 µg/mL) | 5 µM (≈ 1.96 µg/mL) | 656 µM (≈ 257 µg/mL) | 656 µM (≈ 257 µg/mL) | 1660 µM (≈ 648 µg/mL) | 656 µM (≈ 257 µg/mL) | 656 µM (≈ 257 µg/mL) | 656 µM (≈ 257 µg/mL) | 656 µM (≈ 257 µg/mL) | 164 µM (≈ 64.2 µg/mL) | –
CCn1cc(C(=O)O)c(=O)c2cc(F)c(N3CCNCC3)cc21 [NORFLOXACIN] | 1 µM (≈ 0.319 µg/mL) | 6 µM (≈ 1.92 µg/mL) | 3 µM (≈ 0.958 µg/mL) | 50 µM (≈ 16 µg/mL) | 3 µM (≈ 0.958 µg/mL) | 2 µM (≈ 0.639 µg/mL) | 6 µM (≈ 1.92 µg/mL) | 6 µM (≈ 1.92 µg/mL) | 3 µM (≈ 0.958 µg/mL) | 25 µM (≈ 7.98 µg/mL) | 100 µM (≈ 31.9 µg/mL) | 31
O=C1c2cccc3c(N4CCN(c5nccc(-n6cncn6)n5)CC4)ccc(c23)C(=O)N1CCO | 545 µM (≈ 256 µg/mL) | 545 µM (≈ 256 µg/mL) | 545 µM (≈ 256 µg/mL) | 545 µM (≈ 256 µg/mL) | 545 µM (≈ 256 µg/mL) | 68 µM (≈ 32 µg/mL) | 272 µM (≈ 128 µg/mL) | 9 µM (≈ 4.23 µg/mL) | 545 µM (≈ 256 µg/mL) | 545 µM (≈ 256 µg/mL) | 545 µM (≈ 256 µg/mL) | –
OCCN(CCO)c1nccc(-n2cnc3cc(Br)ccc32)n1 | 339 µM (≈ 128 µg/mL) | 170 µM (≈ 64.3 µg/mL) | 1360 µM (≈ 514 µg/mL) | 339 µM (≈ 128 µg/mL) | 85 µM (≈ 32.1 µg/mL) | 339 µM (≈ 128 µg/mL) | 170 µM (≈ 64.3 µg/mL) | 85 µM (≈ 32.1 µg/mL) | 1360 µM (≈ 514 µg/mL) | 1360 µM (≈ 514 µg/mL) | 679 µM (≈ 257 µg/mL) | –
Nc1ccc(S(=O)(=O)Nc2ncccn2)cc1 [SULFADIAZINE] | 31 µM (≈ 7.76 µg/mL) | 1020 µM (≈ 256 µg/mL) | 256 µM (≈ 64.1 µg/mL) | 256 µM (≈ 64.1 µg/mL) | 64 µM (≈ 16 µg/mL) | 129 µM (≈ 32.3 µg/mL) | 64 µM (≈ 16 µg/mL) | 54 µM (≈ 13.5 µg/mL) | 64 µM (≈ 16 µg/mL) | 64 µM (≈ 16 µg/mL) | 64 µM (≈ 16 µg/mL) | –

Source: ChEMBL document CHEMBL5380831, “Azolylpyrimidinediols as Novel Structural Scaffolds of DNA-Groove Binders against Intractable Acinetobacter baumannii” (J Med Chem, 2023)
